# Test results: ChEMBL document CHEMBL1124348, “Synthesis and biological evaluation of substituted benzo[h]cinnolinones and 3H-benzo[6,7]cyclohepta[1,2-c]pyridazinones: higher homologues of the antihypertensive and antithrombotic 5H-indeno[1,2-c]pyridazinones” (J Med Chem, 1989)
# Active and inactive are the calls of the source. The calls are words filed in the database; no cut-off is given here.
# Assays:
# Cavia porcellus [1] = organism: Cavia porcellus; assay: In vitro inhibitory activity of collagen (0.8 ug/mL)-induced platelet aggregation in guinea pig platelet rich plasma at a dose of 0.8 ug/mL; format: functional
# Cavia porcellus [2] = organism: Cavia porcellus; assay: In vitro inhibitory activity of thrombin (0.625 IU/mL)-induced platelet aggregation in guinea pig platelet rich plasma after 2 min; format: functional
# Cavia porcellus [3] = organism: Cavia porcellus; assay: In vitro inhibitory activity of thrombin (0.625 IU/mL)-induced platelet aggregation in guinea pig platelet rich plasma after 4 min; format: functional
# Cavia porcellus [4] = organism: Cavia porcellus; assay: In vitro irreversible inhibitory activity of adenosine diphosphate (0.5 uM)-induced platelet aggregation in guinea pig platelet rich plasma; format: functional
# Cavia porcellus [5] = organism: Cavia porcellus; assay: In vitro reversible inhibitory activity of adenosine diphosphate (0.5 uM)-induced platelet aggregation in guinea pig platelet rich plasma; format: functional
# Cavia porcellus [6] = organism: Cavia porcellus; assay: Inotropic activity against guinea pig spontaneously beating atria; format: functional
# Mus musculus [7] = assay: Antithrombotic activity in mouse when administered a dose of 20 mg/kg perorally; format: functional; details: route oral
# [8] = (§1) Lethal dose in mouse by administering compound intraperitoneally; format: toxicity, organism-based; details: in vivo, ip
# Rattus norvegicus [9] = assay: Antihypertensive activity in hypertensive rats, after peroral administration that lowered the blood pressure by 50 mmHg; format: functional; details: po
# Rattus norvegicus [10] = assay: Variation in heart rate when 25 mg/kg administered orally in rats; format: functional; details: route oral
# [11] = Lethal dose in mouse was determined by administering perorally; format: toxicity, organism-based; details: in vivo, po
# Rattus norvegicus [12] = assay: Antihypertensive activity in hypertensive rats, after peroral administration that lowered the blood pressure by 50 mmHg; value ranges from 3.50 to 4.80; format: functional; details: po
# Rattus norvegicus [13] = organism: Rattus norvegicus; assay: Antihypertensive action versus dihydralazine; format: functional
# [14] = divya_inp96 Lethal dose in mouse by administering compound intraperitoneally; format: toxicity, organism-based; details: in vivo, ip
# Cavia porcellus [15] = organism: Cavia porcellus; assay: Inhibitory activity of thrombin (0.625 IU/mL)-induced platelet aggregation in guinea pig platelet rich plasma after 2 min; format: functional
# Mus musculus [16] = assay: as §1; format: toxicity, organism-based; details: in vivo, ip
# Rattus norvegicus [17] = assay: Antihypertensive activity in hypertensive rats, after peroral administration that lowered the blood pressure by 50 mmHg; value ranges from 0.52 to 4.88; format: functional; details: po
# Cavia porcellus [18] = organism: Cavia porcellus; assay: In vitro irreversible inhibitory activity of adenosine diphosphate (0.5 uM)-induced platelet aggregation in guinea pig platelet rich plasma; NA means inactive; format: functional
# Cavia porcellus [19] = organism: Cavia porcellus; assay: In vitro reversible inhibitory activity of adenosine diphosphate (0.5 uM)-induced platelet aggregation in guinea pig platelet rich plasma; NA means inactive; format: functional
# Mus musculus [20] = assay: Antithrombotic activity in mouse when administered a dose of 20 mg/kg perorally; NA means inactive; format: functional, organism-based; design: dose 20 mg/kg
# Rattus norvegicus [21] = assay: Antihypertensive activity in hypertensive rats, after peroral administration that lowered the blood pressure by 50 mmHg; Valure ranges from 1.67 to 5.40; format: functional; details: po
# Rattus norvegicus [22] = assay: Antihypertensive activity in hypertensive rats, after peroral administration that lowered the blood pressure by 50 mmHg; value ranges from 6.52 to 14.62; format: functional; details: po
# Rattus norvegicus [23] = assay: Antihypertensive activity in hypertensive rats, after peroral administration that lowered the blood pressure by 50 mmHg; value ranges from 2.50 to 6.50; format: functional; details: po
# Rattus norvegicus [24] = assay: divya_inp96 Antihypertensive activity in hypertensive rats, after peroral administration that lowered the blood pressure by 50 mmHg; format: functional; details: po
compound,measurement,setting,value
O=C1CC2CCc3ccccc3C2=NN1 (stereo not given),Inhibition,Cavia porcellus [1],100%
same,Inhibition,Cavia porcellus [2],84%
same,Inhibition,Cavia porcellus [3],97%
same,Inhibition,Cavia porcellus [4],95%
same,Inhibition,Cavia porcellus [5],30%
same,pD2,Cavia porcellus [6],4.98
same,Protection,Mus musculus [7],59%
same,LD50,[8],450 mg/kg
same,ED50,Rattus norvegicus [9],23.5 mg/kg
same,Peak effect,Rattus norvegicus [10],70
same,LD50,[11],666 mg/kg
CC(=O)Nc1ccc2c(c1)CC1CC(=O)NN=C21 (stereo not given),pD2,Cavia porcellus [6],5.95
same,ED50,Rattus norvegicus [12],7.1 mg/kg
same,Peak effect,Rattus norvegicus [10],53
same,Relative activity,Rattus norvegicus [13],0.58
CC(Cl)C(=O)Nc1ccc2c(c1)CCC1CC(=O)NN=C21 (stereo not given),Protection,Mus musculus [7],33%
same,LD50,[8],> 1000 mg/kg
same,LD50,[11],> 1000 mg/kg
CC(=O)Nc1ccc2c(c1)CCCC1CC(=O)NN=C21 (stereo not given),Protection,Mus musculus [7],46%
same,LD50,[8],> 1000 mg/kg
same,LD50,[11],> 1000 mg/kg
CC(=O)Nc1ccc2c(c1)CCc1cc(O)nnc1-2,Inhibition,Cavia porcellus [1],6%
same,Inhibition,Cavia porcellus [2],81%
same,Inhibition,Cavia porcellus [3],86%
same,Inhibition,Cavia porcellus [4],95%
same,Inhibition,Cavia porcellus [5],40%
same,pD2,Cavia porcellus [6],5.77
same,Protection,Mus musculus [7],55%
same,LD50,[8],651 mg/kg
same,ED50,Rattus norvegicus [9],3.6 mg/kg
same,Peak effect,Rattus norvegicus [10],50
same,Relative activity,Rattus norvegicus [13],1.14
same,LD50,[11],> 1000 mg/kg
Oc1cc2c(nn1)-c1ccccc1CC2,pD2,Cavia porcellus [6],4.74
same,Protection,Mus musculus [7],33%
same,LD50,[8],707 mg/kg
same,ED50,Rattus norvegicus [9],> 25 mg/kg
same,Peak effect,Rattus norvegicus [10],-35
same,LD50,[11],> 1000 mg/kg
CC(=O)Nc1ccc2c(c1)CCC1CC(=O)NN=C21 (stereo in doubt; (-)-3c),Inhibition,Cavia porcellus [1],10%
same,Inhibition,Cavia porcellus [2],62%
same,Inhibition,Cavia porcellus [3],63%
same,Inhibition,Cavia porcellus [4],76%
same,Inhibition,Cavia porcellus [5],37%
same,Protection,Mus musculus [7]; 20 mg/kg,84%
CC(=O)Oc1ccccc1C(=O)O [ASPIRIN],Inhibition,Cavia porcellus [1],75%
same,Inhibition,Cavia porcellus [3],0%
same,Inhibition,Cavia porcellus [4],100%
same,Inhibition,Cavia porcellus [5],0%
same,Protection,Mus musculus [7],44%
same,LD50,[14],6500 mg/kg
same,Inhibition,Cavia porcellus [15],0%
same,LD50,[11],> 1000 mg/kg
CC(=O)Nc1ccc2c(c1)C1=NNC(=O)CC1CC2 (stereo not given),Inhibition,Cavia porcellus [1],62%
same,Inhibition,Cavia porcellus [2],17%
same,Inhibition,Cavia porcellus [3],14%
same,Inhibition,Cavia porcellus [4],6%
same,Inhibition,Cavia porcellus [5],0%
same,Protection,Mus musculus [7],25%
same,LD50,[8],> 1000 mg/kg
same,LD50,[11],> 1000 mg/kg
"CC(=O)Nc1ccc2c(c1)CCC1CC(=O)NN=C21 (single isomer, unassigned; (+))",Inhibition,Cavia porcellus [1],2%
same,Inhibition,Cavia porcellus [2],91%
same,Inhibition,Cavia porcellus [3],100%
same,Inhibition,Cavia porcellus [4],77%
same,Inhibition,Cavia porcellus [5],36%
same,pD2,Cavia porcellus [6],5.65
same,Protection,Mus musculus [7]; 20 mg/kg,89%
same,LD50,Mus musculus [16],> 1000 mg/kg
same,ED50,Rattus norvegicus [17],2.1 mg/kg
same,Peak effect,Rattus norvegicus [10]; 25 mg/kg,55
same,Relative activity,Rattus norvegicus [13],1.95
CC(=O)Nc1cccc2c1CCC1CC(=O)NN=C21 (stereo not given),inhibition,Cavia porcellus [18],inactive
same,inhibition,Cavia porcellus [19],inactive
same,Protection,Mus musculus [20],inactive
same,LD50,[8],378 mg/kg
same,LD50,[11],> 1000 mg/kg
Cn1c(=O)c2[nH]cnc2n(C)c1=O.Cn1c(=O)c2[nH]cnc2n(C)c1=O.NCCN [AMINOPHYLLINE],pD2,Cavia porcellus [6],5.91
CC(=O)Nc1ccc2c(c1)CCC1CC(=O)NN=C21 (racemic),Inhibition,Cavia porcellus [1],47%
same,Inhibition,Cavia porcellus [2],65%
same,Inhibition,Cavia porcellus [3],66%
same,Inhibition,Cavia porcellus [4],92%
same,Inhibition,Cavia porcellus [5],47%
same,pD2,Cavia porcellus [6],5.54
same,Protection,Mus musculus [7]; 20 mg/kg,100%
same,LD50,Mus musculus [16],460 mg/kg
same,ED50,Rattus norvegicus [21],3.1 mg/kg
same,Peak effect,Rattus norvegicus [10]; 25 mg/kg,90
same,Relative activity,Rattus norvegicus [13],1.32
same,LD50,[11],> 1000 mg/kg
Nc1ccc2c(c1)CCCC1CC(=O)NN=C21 (stereo not given),Protection,Mus musculus [7],45%
same,LD50,[8],483 mg/kg
same,LD50,[11],700 mg/kg
N#Cc1ccc2c(c1)CCC1CC(=O)NN=C21 (stereo not given),Protection,Mus musculus [20],inactive
same,LD50,[8],560 mg/kg
same,LD50,[11],> 1000 mg/kg
Nc1ccc2c(c1)CC1CC(=O)NN=C21 (stereo not given),pD2,Cavia porcellus [6],5.05
same,Peak effect,Rattus norvegicus [10],49
same,Relative activity,Rattus norvegicus [13],0.37
same,ED50,Rattus norvegicus [22],11 mg/kg
Nc1ccc2c(c1)CCC1CC(=O)NN=C21 (stereo not given),Inhibition,Cavia porcellus [1],21%
same,Inhibition,Cavia porcellus [2],13%
same,Inhibition,Cavia porcellus [3],27%
same,Inhibition,Cavia porcellus [4],42%
same,Inhibition,Cavia porcellus [5],10%
same,pD2,Cavia porcellus [6],4.93
same,Protection,Mus musculus [7],73%
same,LD50,[8],611 mg/kg
same,ED50,Rattus norvegicus [23],3.5 mg/kg
same,Peak effect,Rattus norvegicus [10],90
same,Relative activity,Rattus norvegicus [13],1.17
same,LD50,[11],> 1000 mg/kg
N/N=c1\[nH][nH]/c(=N\N)c2ccccc12 [DIHYDRALAZINE],ED50,Rattus norvegicus [24],64.1 mg/kg
same,Peak effect,Rattus norvegicus [10],68
same,Relative activity,Rattus norvegicus [13],1
